Data on 1 substance can be found in patent publication US20150223463A1, “SPIROCYCLIC ISOXAZOLINE DERIVATIVES FOR TREATMENT OF SEA LICE” (Zoetis LLC, priority 2012, published 2015).

This assay relates to Lepeophtheirus salmonis (sea lice). Nature of the assay: Sea lice bioassay, 24 hours exposure to test compound. The conditions noted are these: predominantly pre-adult and adult stage, generally chemical resistant strain. It counts as in vivo.

In the case of Emamectin, the “Adult Females (EC50)” value (adult female sea lice) amounted to 65 ppb. In addition, the “Adult Males (EC50)” value (adult male sea lice) is reported as 202 ppb.
